We go through 2 compounds from BindingDB's records for doi:10.1016/j.bmcl.2005.09.045 (University of Leeds, 2006).

The assay has as its target T1, Dihydroorotate dehydrogenase (quinone), mitochondrial (Plasmodium falciparum (isolate 3D7), UniProt Q08210).
T1 sequence (Q08210 whole entry): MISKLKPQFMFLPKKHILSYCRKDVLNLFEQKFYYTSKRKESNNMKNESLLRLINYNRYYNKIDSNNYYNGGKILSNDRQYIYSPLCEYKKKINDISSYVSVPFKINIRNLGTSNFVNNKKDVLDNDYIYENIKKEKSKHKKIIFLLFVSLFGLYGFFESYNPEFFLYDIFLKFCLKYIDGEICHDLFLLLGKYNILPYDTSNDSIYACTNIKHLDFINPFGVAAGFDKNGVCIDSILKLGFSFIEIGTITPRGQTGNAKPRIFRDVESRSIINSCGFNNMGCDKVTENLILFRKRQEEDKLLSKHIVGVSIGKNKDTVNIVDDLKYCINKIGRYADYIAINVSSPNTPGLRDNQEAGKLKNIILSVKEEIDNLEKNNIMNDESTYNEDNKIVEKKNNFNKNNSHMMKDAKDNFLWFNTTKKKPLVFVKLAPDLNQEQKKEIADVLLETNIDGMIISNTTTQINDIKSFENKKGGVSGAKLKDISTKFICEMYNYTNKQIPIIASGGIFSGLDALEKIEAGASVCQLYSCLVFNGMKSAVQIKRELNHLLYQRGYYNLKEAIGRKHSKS
In words: DHODH Inhibition Assay. As to conditions: pH 8; 25 °C. As to the method:
The assays were carried out by using a colorimetric DCIP method, which uses the colorimetric reagent 2, 6-dichlorophenolindophenol as the final electron acceptor. DCIP reduction is stoichiometrically equivalent to oxidation of dihydroorotate. Changes in absorbance were quantified in triplicate on a plate reader and data were analyzed to measure the reduction of DCIP as a decrease in absorbance at 600 nm. The data were then processed with Graphpad Prism to determine the IC50 and the apparent enzyme inhibition constant (Ki) for each inhibitor. Ki values were calculated using the Cheng-Prusoff equation with the Km for CoQD of 13 uM and 15 uM for PfDHODH and HsDHODH respectively.

Take `CN(C(=O)c1ccc2ccccc2c1)c1ccccc1C(=O)O` [2-[methyl(naphthalene-2-)amido]benzoic acid]: the IC50 (as a rule, the concentration needed to halve the response being measured) was greater than 200 µM. Under `O=C(Nc1ccccc1C(=O)O)c1ccc2ccccc2c1` [2-(naphthalene-2-amido)benzoic acid] stands greater than 200 µM.
